Patent US20060167229A1, “Biologically active peptide conjugates” (priority 2002, published 2006)
Marks after values point to notes of the source that are not given here. Ends that are not written are not given here.

Assays:
[1] = test system: IL-2; test: T lymphocyte IL-2 secretion test (HT-2 cell bioassay of ConA supernatant); type: in vivo, BALB/c mice; conditions: for activity of T lymphocyte in secreting IL-2, X ± SD (IU): healthy mice; for effect on the secretion of interleukin-2 (IL-2) by T lymphocytes (summary): statistically significant difference from saline in any of the dosage groups 0.5-500 μg/kg/day
Method: Spleen cells of density 1×10^6/ml were placed onto a 96 wells cell culture plate, 100 μL/well, three parallel wells each of the assay sample and control sample per mouse. To the assay wells, 100 μl/well ConA of 100 μg/ml in RPMI-1640 was added, and […] plain RPMI-1640 was used for the controls. The cells were incubated for 66 hrs at 37° C., 5% CO2. The cells were then pelleted by centrifugation at 150 g for 10 minutes.
HT-2 cells at log phase were collected by centrifugation at 150 g for 10 minutes, and washed three times with cold Hank's solution by re-suspension and centrifugation. The collected HT-2 cells were re-suspended in RPMI-1640 and incubated at 37° C., 5% CO2 for 30 minutes. The cells were further washed twice with RPMI-1640 by re-suspension and centrifugation, and re-suspended to final concentration of 2×10^5/ml with RPMI-1640.
rIL-2 was diluted to the following concentration with RPMI-1640: 500 IU/ml, 250 IU/ml, 125 IU/ml, 62.5 IU/ml, 31.25 IU/ml, and […].
The plate was incubated at 37° C., 5% CO2 for 68 hours, then centrifuged at 150 g for 15 minutes and the supernatant removed. 100 μl 0.5 mg/ml MTT in RPMI-1640 without phenolsulfonphthalein was added into each well. After shaking for 3-4 minutes to re-suspend the cells, continue to incubate for another 4 hours. Samples were then centrifuged at 150 g for 15 minutes and the supernatant was removed. To each well, 120 μl 40 mM HCl-2-propanol was added, mixed for 3-4 minutes and OD analyzed at 570 nm, referenced at 630 nm with an ELISA plate reader.
The average OD of the three parallel wells of each dilution was taken and plotted against concentration on a semi-log paper, concentration on the X-axis. The concentration at 50% OD saturation was obtained for both the testing supernatant and rIL-2.

[2] = test system: T lymphocyte; test: T lymphocyte transformation in mice with ascitic fluid type liver cancer H22; type: in vivo, BALB/c mice; conditions: saline 1.25 ± 0.07
Method: Healthy BALB/c mice were randomised into peptide group, rmIFN-γ group, rhIL-2 group, and saline group, 15 mice per group, and prepared into H22 carrying mice model as described in section Method 3. After implantation of the cancer cells, the test substances were administered for 15 days, the mice were killed by cervical dislocation. The spleen was isolated aseptically and manually dispersed in cold D-Hank's solution using an injection needle. The dispersed cell suspension was further sieved through a 100-gauge 150 μm diameter stainless steel sieve. After centrifugation at 200 g for 10 minutes, the supernatant was discarded. The cell pellet was re-suspended in 10 volume of Tris-NH4Cl buffer and then kept standing still for 10 minutes at room temperature. The suspended cells were collected by centrifugation at 150 g for 10 minutes. The cells were washed 2-4 times with cold D-Hank's solution by re-suspending and collecting by centrifugation with condition as described above. The washed cells were then diluted to the desired cell densities by RPMI-1640 culture medium, containing 10% fetal bovine serum.
Spleen cells of density 1×10^6/ml were placed onto a 96 wells cell culture plate, 100 μl/well, three parallel wells each of the assay sample and control sample per mouse. To the assay wells, 100 μl/well ConA of 100 μg/ml in RPMI-1640 was added, and 100 μl/well plain RPMI-1640 was used for the controls. The cells were incubated for 66 hrs at 37° C., 5% CO2. The cells were then pelleted by centrifugation at 150 g for 10 minutes.
50 μl/well MTT of 1 mg/ml in RPMI-1640 was added to the cell pellet and the cells re-suspended by shaking for 2 minutes. The incubation was continued for 4 hours. The supernatant was discarded after centrifugation at 150 g for 10 minutes. 120 μl 40 mM HCl-2-propanol was added to the cell pellet and shaken for 3 minutes. Use an ELISA reader to obtain OD570 nm of each well referenced at 630 nm.
Each mouse formed three assay wells and three control wells. The Stimulation Index (SI) of each mouse was obtained by first deriving the average OD of the three parallel wells, then dividing the value of the assay wells by the control wells.

[3] = peptide 50 μg/kg/day i.p. 15 days (IFN-γ, IL-2 3×10^5 IU/kg/day), saline 39 ± 10
[4] = peptide 5 μg/kg/day i.p. 15 days (IFN-γ, IL-2 3×10^5 IU/kg/day), saline 37 ± 9
[5] = peptide 0.51 g/kg/day (so in the source) i.p. 15 days (IFN-γ, IL-2 3×10^5 IU/kg/day), saline 38 ± 13
[6] = peptide 500 μg/kg/day i.p. 15 days (IFN-γ, IL-2 3×10^5 IU/kg/day), saline 39 ± 10

FNFVPP [CMS003]
activity of T lymphocyte in secreting IL-2, X ± SD (IU) [1, 3]: 86 ± 9*^ IU | effect on the secretion of interleukin-2 (IL-2) by T lymphocytes (summary) [1]: enhance

LGMQACGIHETTY [CMS012]
activity of T lymphocyte in secreting IL-2, X ± SD (IU) [1, 4]: 65 ± 16 IU | activity of T lymphocyte in secreting IL-2, X ± SD (IU) [1, 5]: 59 ± 13 IU | effect on the secretion of interleukin-2 (IL-2) by T lymphocytes (summary) [1]: enhance

LRVAPQQHPTL [CMS009]
activity of T lymphocyte in secreting IL-2, X ± SD (IU) [1, 6]: 114 ± 13*^@^ IU | effect on the secretion of interleukin-2 (IL-2) by T lymphocytes (summary) [1]: enhance

PTTKTYFPHF [CMS001]
activity of T lymphocyte in secreting IL-2, X ± SD (IU) [1, 3]: 60 ± 10 IU | effect on the secretion of interleukin-2 (IL-2) by T lymphocytes (summary) [1]: enhance

Phe Val Asn Asp (FVND; listed as Sus scrofa) [CMS035]
Stimulation index ([2]; dose 0.5 μg/kg): 1.40 ± 0.13*^$ | Stimulation index ([2]; dose 5 μg/kg): 1.46 ± 0.16*^$

Pro Gln Asn Phe (PQNF; printed: Pro Gln Asn Phe) [CMS034]
activity of T lymphocyte in secreting IL-2, X ± SD (IU) [1, 5]: 85 ± 10*^ IU | effect on the secretion of interleukin-2 (IL-2) by T lymphocytes (summary) [1]: enhance | Stimulation index ([2]; dose 0.5 μg/kg): 1.37 ± 0.10*^$

Pro Ser Ile Vat Gly Arg Pro Arg His Gln Gly Val Met (PSIVGRPRHQGVM; listed as Sus scrofa) [CMS015]
activity of T lymphocyte in secreting IL-2, X ± SD (IU) [1, 6]: 85 ± 17*^ IU | effect on the secretion of interleukin-2 (IL-2) by T lymphocytes (summary) [1]: enhance

RVAPQQHPTL [CMS011]
activity of T lymphocyte in secreting IL-2, X ± SD (IU) [1, 5]: 101 ± 19*^@^ IU | effect on the secretion of interleukin-2 (IL-2) by T lymphocytes (summary) [1]: enhance

Tyr Ser Leu (YSL; listed as Sus scrofa) [CMS024]
Stimulation index ([2]; dose 0.5 μg/kg): 1.46 ± 0.19*^$ | Stimulation index ([2]; dose 5 μg/kg): 1.45 ± 0.21*^$

Tyr Ser Phe (YSF; listed as Sus scrofa) [CMS022]
activity of T lymphocyte in secreting IL-2, X ± SD (IU) [1, 5]: 109 ± 14*^@^ IU | effect on the secretion of interleukin-2 (IL-2) by T lymphocytes (summary) [1]: enhance

VAPEEHPTLLTEAPLNPK [CMS010]
activity of T lymphocyte in secreting IL-2, X ± SD (IU) [1, 6]: 125 ± 17*^@^ IU | activity of T lymphocyte in secreting IL-2, X ± SD (IU) [1, 5]: 66 ± 11 IU | effect on the secretion of interleukin-2 (IL-2) by T lymphocytes (summary) [1]: enhance | Stimulation index ([2]; dose 500 μg/kg): 1.45 ± 0.21*^$

VGMGQKDSY
Stimulation index ([2]; dose 0.5 μg/kg): 1.50 ± 0.19*^$

VGMGQKDSYV [CMS020]
activity of T lymphocyte in secreting IL-2, X ± SD (IU) [1, 4]: 63 ± 11 IU | effect on the secretion of interleukin-2 (IL-2) by T lymphocytes (summary) [1]: enhance

B1: IFN-γ: recombinant mouse IFN-γ (rmIFN-γ), Beijing Biotech Inc.; positive control (protein, UniProt P01580 23-155, looked up)
Interferon gamma: HGTVIESLESLNNYFNSSGIDVEEKSLFLDIWRNWQKDGDMKILQSQIISFYLRLFEVLKDNQAISNNISVIESHLITTFFSNSKAKKDAFMSIAKFEVNNPQVQRQAFNELIRVVHQLLPESSLRKRKRSRC
activity of T lymphocyte in secreting IL-2, X ± SD (IU) [1, 4]: 96 ± 14 IU | activity of T lymphocyte in secreting IL-2, X ± SD (IU) [1, 3]: 99 ± 16 IU | activity of T lymphocyte in secreting IL-2, X ± SD (IU) [1, 6]: 100 ± 18 IU | activity of T lymphocyte in secreting IL-2, X ± SD (IU) [1, 5]: 87 ± 15 IU | Stimulation index ([2]; controls: rhIL-2, rmIFN-γ 3 × 10^5 IU/kg, cyclophosphamide 20 mg/kg): 1.27 ± 0.14
